Assay results: the RepoRT retention time repository (doi:10.1016/j.jchromb.2020.122105)

What was measured:
Details in all cases: stereoisomer not certain
[1] = HILIC, Waters XBridge BEH Amide, 100 × 2.1 mm, 2.5 µm, 0.5 mL/min, estimated dead time 0.44 min; A: water + 0.1% acetic acid + 10 mM ammonium acetate, pH 4; B: 5% water + 95% acetonitrile + 0.1% acetic acid + 10 mM ammonium acetate, pH 4; gradient (min/%B) 0/95 5/95 20/57 25/57 30/95 40/95
[2] = HILIC, Thermo Scientific Accucore HILIC, 100 × 2.1 mm, 2.6 µm, 0.5 mL/min, estimated dead time 0.44 min; A: water + 0.1% formic acid + 10 mM ammonium formate, pH 3; B: 5% water + 95% acetonitrile + 0.1% formic acid + 10 mM ammonium formate, pH 3; gradient (min/%B) 0/95 5/95 20/57 25/57 30/95 40/95
[3] = HILIC, Merck SeQuant ZIC-HILIC, 150 × 2.1 mm, 5 µm, 0.75 mL/min, estimated dead time 0.44 min; A: water + 10 mM ammonium formate, pH 6; B: 5% water + 95% acetonitrile + 10 mM ammonium formate, pH 6; gradient (min/%B) 0/95 5/95 20/57 25/57 30/95 40/95
[4] = HILIC, Merck SeQuant ZIC-HILIC, 150 × 2.1 mm, 5 µm, 0.75 mL/min, estimated dead time 0.44 min; A: water + 0.1% acetic acid + 10 mM ammonium acetate, pH 4; B: 5% water + 95% acetonitrile + 0.1% acetic acid + 10 mM ammonium acetate, pH 4; gradient (min/%B) 0/95 5/95 20/57 25/57 30/95 40/95
[5] = RP, Waters ACQUITY UPLC BEH C18, 100 × 2.1 mm, 1.7 µm, 0.2 mL/min, estimated dead time 1.1 min; A: water + 0.025% formic acid + 20 mM ammonium acetate + 0.055% ammonium hydroxide, pH 7; B: methanol; gradient (min/%B) 0/5 5/5 25/100 30/100 30.1/5 35/5
[6] = RP, Waters CORTECS T3, 100 × 2.1 mm, 2.7 µm, 0.25 mL/min, estimated dead time 0.88 min; A: water + 0.1% formic acid, pH 3; B: methanol + 0.1% formic acid, pH 3; gradient (min/%B) 0/5 5/5 25/95 25.1/100 35/100 35.1/5 45/5
[7] = RP, Waters ACQUITY UPLC BEH C18, 100 × 2.1 mm, 1.7 µm, 0.2 mL/min, estimated dead time 1.1 min; A: water + 0.025% formic acid + 20 mM ammonium acetate + 0.055% ammonium hydroxide, pH 7; B: methanol; gradient (min/%B) 0/5 5/5 25/100 30/100 30.1/5 35/5; remark: listed apart in the source
[8] = RP, Waters CORTECS T3, 100 × 2.1 mm, 2.7 µm, 0.2 mL/min, estimated dead time 1.1 min; A: water + 0.1% formic acid, pH 3; B: methanol + 0.1% formic acid, pH 3; gradient (min/%B) 0/5 5/5 25/95 25.1/100 35/100 35.1/5 45/5
[9] = RP, Waters ACQUITY UPLC BEH C18, 100 × 2.1 mm, 1.7 µm, 0.1 mL/min, estimated dead time 2.2 min; A: water + 0.045% formic acid + 0.11% ammonium hydroxide, pH 7; B: methanol; gradient (min/%B) 0/5 5/5 25/95 25.1/100 35/100 35.1/5 45/5
[10] = RP, Waters CORTECS T3, 100 × 2.1 mm, 2.7 µm, 0.15 mL/min, estimated dead time 1.5 min; A: water + 0.1% formic acid, pH 3; B: methanol + 0.1% formic acid, pH 3; gradient (min/%B) 0/0 1/0 6/5 30/100 35/100 35.1/0 40/0
[11] = RP, Waters CORTECS T3, 100 × 2.1 mm, 2.7 µm, 0.3 mL/min, estimated dead time 0.73 min; A: water + 0.1% formic acid, pH 3; B: methanol + 0.1% formic acid, pH 3; gradient (min/%B) 0/0 5/0 25/100 30/100 30.1/0 35/0
[12] = RP, Waters ACQUITY UPLC BEH C18, 100 × 2.1 mm, 1.7 µm, 0.1 mL/min, estimated dead time 2.2 min; A: water + 0.1% formic acid, pH 3; B: methanol + 0.1% formic acid, pH 3; gradient (min/%B) 0/5 5/5 25/95 25.1/100 35/100 35.1/5 45/5
[13] = RP, Waters CORTECS T3, 100 × 2.1 mm, 2.7 µm, 0.3 mL/min, estimated dead time 0.73 min; A: water + 0.1% formic acid, pH 3; B: methanol + 0.1% formic acid, pH 3; gradient (min/%B) 0/0 1/0 6/5 30/100 35/100 35.1/0 40/0
[14] = RP, Waters CORTECS T3, 100 × 2.1 mm, 2.7 µm, 0.25 mL/min, estimated dead time 0.88 min; A: water + 0.1% formic acid, pH 3; B: methanol + 0.1% formic acid, pH 3; gradient (min/%B) 0/0 1/0 6/5 30/100 35/100 35.1/0 40/0
[15] = RP, Waters CORTECS T3, 100 × 2.1 mm, 2.7 µm, 0.3 mL/min, estimated dead time 0.73 min; A: water + 0.1% formic acid, pH 3; B: methanol + 0.1% formic acid, pH 3; gradient (min/%B) 0/0 5/0 25/100 30/100 30.1/0 35/0; remark: listed apart in the source
[16] = RP, Waters ACQUITY UPLC BEH C18, 100 × 2.1 mm, 1.7 µm, 0.2 mL/min, estimated dead time 1.1 min; A: water + 0.1% formic acid, pH 3; B: methanol + 0.1% formic acid, pH 3; gradient (min/%B) 0/5 5/5 25/100 30/100 30.1/5 35/5
[17] = RP, Waters ACQUITY UPLC BEH C18, 100 × 2.1 mm, 1.7 µm, 0.1 mL/min, estimated dead time 2.2 min; A: water + 0.1% formic acid, pH 3; B: methanol + 0.1% formic acid, pH 3; gradient (min/%B) 0/5 5/5 25/100 30/100 30.1/5 35/5
[18] = RP, Waters CORTECS T3, 100 × 2.1 mm, 2.7 µm, 0.3 mL/min, estimated dead time 0.73 min; A: water + 0.1% formic acid, pH 3; B: methanol + 0.1% formic acid, pH 3; gradient (min/%B) 0/0 1/0 6/5 30/100 35/100 35.1/0 40/0; remark: listed apart in the source
[19] = RP, Thermo Scientific Hypercarb, 150 × 2.1 mm, 5 µm, 0.1 mL/min, estimated dead time 3.3 min; A: water + 0.1% formic acid, pH 3; B: methanol + 0.1% formic acid, pH 3; gradient (min/%B) 0/5 5/5 20/100 35/100 35.1/5 45/5
[20] = RP, Waters CORTECS T3, 100 × 2.1 mm, 2.7 µm, 0.2 mL/min, estimated dead time 1.1 min; A: water + 0.1% formic acid, pH 3; B: methanol + 0.1% formic acid, pH 3; gradient (min/%B) 0/0 1/0 6/5 30/100 35/100 35.1/0 40/0
[21] = as above; remark: listed apart in the source
[22] = RP, Waters CORTECS T3, 100 × 2.1 mm, 2.7 µm, 0.3 mL/min, estimated dead time 0.73 min; A: water + 0.1% formic acid, pH 3; B: methanol + 0.1% formic acid, pH 3; gradient (min/%B) 0/5 5/5 25/95 25.1/100 35/100 35.1/5 45/5
[23] = RP, Waters CORTECS T3, 100 × 2.1 mm, 2.7 µm, 0.1 mL/min, estimated dead time 2.2 min; A: water + 0.1% formic acid, pH 3; B: methanol + 0.1% formic acid, pH 3; gradient (min/%B) 0/5 5/5 25/95 25.1/100 35/100 35.1/5 45/5
[24] = RP, Waters CORTECS T3, 100 × 2.1 mm, 2.7 µm, 0.15 mL/min, estimated dead time 1.5 min; A: water + 0.1% formic acid, pH 3; B: methanol + 0.1% formic acid, pH 3; gradient (min/%B) 0/5 5/5 25/95 25.1/100 35/100 35.1/5 45/5
[25] = RP, Waters ACQUITY UPLC BEH C18, 100 × 2.1 mm, 1.7 µm, 0.1 mL/min, estimated dead time 2.2 min; A: water + 0.1% formic acid, pH 3; B: methanol + 0.1% formic acid, pH 3; gradient (min/%B) 0/5 5/5 25/95 25.1/100 35/100 35.1/5 45/5; remark: listed apart in the source
[26] = as above; remark: listed apart in the source
[27] = RP, Waters CORTECS T3, 100 × 2.1 mm, 2.7 µm, 0.1 mL/min, estimated dead time 2.2 min; A: water + 0.1% formic acid, pH 3; B: methanol + 0.1% formic acid, pH 3; gradient (min/%B) 0/0 1/0 6/5 30/100 35/100 35.1/0 40/0
[28] = RP, Waters CORTECS T3, 100 × 2.1 mm, 2.7 µm, 0.3 mL/min, estimated dead time 0.73 min; A: water + 0.1% formic acid, pH 3; B: methanol + 0.1% formic acid, pH 3; gradient (min/%B) 0/5 5/5 25/100 30/100 30.1/5 35/5

LC retention time [1] [min]	LC retention time [2] [min]	LC retention time [3] [min]	LC retention time [4] [min]	LC retention time [6] [min]	LC retention time [7] [min]	LC retention time [8] [min]	LC retention time [10] [min]	LC retention time [11] [min]	LC retention time [14] [min]	LC retention time [15] [min]	LC retention time [16] [min]	LC retention time [17] [min]	LC retention time [19] [min]	Compound	also measured
15	15.4	15.9	16.3	–	1.36	2.43	–	–	–	–	–	–	4.86	NCCC(=O)NC(Cc1cnc[nH]1)C(=O)O (configuration not stated) [CARNOSINE]	–
–	9.61	–	–	21.7	19.5	–	–	–	–	–	21.8	–	–	CC(CCC(=O)NCC(=O)O)C1CCC2C3C(O)CC4CC(O)CCC4(C)C3CC(O)C12C (configuration not stated) [GLYCOCHOLATE]	–
–	9.23	–	–	–	–	–	–	–	–	–	–	–	–	CCCCCCCCCCCC(=O)O [LAURIC ACID]	–
13.2	13	13.6	13.4	–	–	2.64	1.78	0.89	1.09	0.89	1.34	2.69	4.9	CC(=O)NC(CCCCN)C(=O)O [N-ALPHA-ACETYL-L-LYSINE]	LC retention time [5]: 1.37 min; LC retention time [20]: 1.35 min; LC retention time [21]: 1.34 min

Continued, compound first:

Compound	LC retention time [1] [min]	LC retention time [2] [min]	LC retention time [3] [min]	LC retention time [4] [min]	LC retention time [6] [min]	LC retention time [7] [min]	LC retention time [8] [min]	LC retention time [10] [min]	LC retention time [11] [min]	LC retention time [14] [min]	LC retention time [15] [min]	LC retention time [16] [min]	LC retention time [17] [min]	LC retention time [19] [min]	also measured
CC(O)(CC(=O)O)CC(=O)O [3-HYDROXY-3-METHYLGLUTARATE]	12.1	11.2	12.8	12.2	–	–	–	–	–	–	–	–	–	–	–
Nc1ncnc2nc[nH]c12 [ADENINE]	2.99	2.08	2.16	–	1.06	1.89	2.67	1.8	0.91	1.06	0.91	1.36	2.71	–	LC retention time [5]: 3.46 min; LC retention time [9]: 2.75 min; LC retention time [12]: 2.65 min; LC retention time [13]: 0.9 min; LC retention time [18]: 0.9 min
NC(C=O)C(O)C(O)C(O)COS(=O)(=O)O [D-GLUCOSAMINE 6-SULFATE]	13.1	11.8	15	15.2	–	–	–	–	–	–	–	–	–	–	–
N[C@@H](Cc1cnc[nH]1)C(=O)O [L-HISTIDINE]	–	14.9	–	–	–	–	2.39	–	–	–	–	–	–	4.72	–
CCCCCCSCC(NC(=O)CCC(N)C(=O)O)C(=O)NCC(=O)O (configuration not stated) [S-HEXYL-GLUTATHIONE]	–	–	–	–	16.6	12.8	22.9	20.8	16.2	18.7	16.2	17.5	20.6	–	LC retention time [22]: 16 min; LC retention time [23]: 20.5 min; LC retention time [24]: 18.5 min; LC retention time [20]: 19.5 min; LC retention time [25]: 21.2 min; LC retention time [26]: 21.2 min; LC retention time [21]: 19.5 min; LC retention time [9]: 19.8 min; LC retention time [27]: 17.4 min; LC retention time [12]: 21.1 min; LC retention time [13]: 18.1 min; LC retention time [28]: 15.6 min; LC retention time [18]: 18.1 min
